Experimental data as given in PMC6950245, “Identification and Characterization of ShSPI, a Kazal-Type Elastase Inhibitor from the Venom of Scolopendra Hainanum” (Toxins, 2019).
Where a SMILES comes first, the peptide text is derived from it. Bridges are numbered along the chain shown (N, C = ends).

Tests used:
[1] = biological target: T1, human neutrophil elastase (HNE) (Homo sapiens, UniProt P08246); test: Protease inhibition assay, human neutrophil elastase (chromogenic substrate, Dixon method); type: biochemical
T1 construct: purchased Sigma-Aldrich E8140
T1 sequence (P08246 30-267): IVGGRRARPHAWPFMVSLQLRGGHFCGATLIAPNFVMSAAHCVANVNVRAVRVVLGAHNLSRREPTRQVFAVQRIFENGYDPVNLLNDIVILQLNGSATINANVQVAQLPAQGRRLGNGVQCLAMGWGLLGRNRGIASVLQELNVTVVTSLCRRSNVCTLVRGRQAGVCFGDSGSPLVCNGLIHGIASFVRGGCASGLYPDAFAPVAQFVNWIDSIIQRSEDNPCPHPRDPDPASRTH
From the text: (§1) Human neutrophils elastase (HNE, E8140), porcine pancreatic elastase (PPE, E0127), cathepsin G (CG, C4428), human trypsin (T6424), α-chymotrypsin from human pancreas (C8946), and thrombin from human plasma (T4393) were all purchased from Sigma-Aldrich (USA). Factor Xa (FXa, HFXa 1011) and Factor XIIa (FXIIa, HFXIIa 1212a) were from Enzyme Research Laboratories (South Bend, IN, USA). Kallikrein from human plasma (420307) was from Merck Millipore (Billerica, MA, USA).
Substrate for HNE and PPE (MeOSuc-Ala-Ala-Pro-Val-pNA, 324696) was purchased from Merck Millipore (USA). Substrates for CG (Succinyl-Ala-Ala-Pro-Phe-pNA, 573462), trypsin (Nalpha-Benzoyl-L-arginine 4-nitroanilide hydrochloride, B3133), FXa (CH3OCO-D-CHA-Gly-Arg-pNA-AcOH, F3301), chymotrypsin (N-Succinyl-Gly-Gly-Phe-pNA, S1899), thrombin (β-Ala-Gly-Arg-pNA diacetate, T3068), and kallikrein (Z-Phe-Arg 7-amido-4-methylcoumarin hydrochloride, C9521) were purchased from Sigma-Aldrich (USA).
(§2) As mentioned in our previous study, experiments for protease inhibitory activity were assayed in buffer (0.05 M Tris-HCl, pH 7.8) at 37 °C. […] At the end of the incubation, the reaction was initiated by the addition of the exclusive substrate solution and monitored by recording the absorbance at 405 nm every 30 s for 30 min. Enzyme activity in each well was calculated based on the initial slope of the reaction curve, and percentage of the initial slope of the uninhibited reaction was expressed. The inhibition constant Ki value was determined according to the Dixon method.

[2] = Plasma stability, read out by enzyme inhibitory activity; type: in vitro ADME; conditions: lyophilized human plasma resuspended in water, 500 nM, 37 °C, 0-48 h, triplicate samples
Description: Lyophilized human plasma (400100, Cayman, Ann Arbor, MI, USA) was resuspended in sterile water according to the instruction, then ShSPI was added to each equivalent volume with a final concentration of 500 nM, and samples were co-incubated at 37 °C for two days. Triplicate samples were collected at selected time points (0, 6, 12, 18, 24, 30, 36, 42, and 48 h) and protease activity was tested as described above.

[3] = biological target: T2, porcine pancreatic elastase (PPE) (Sus scrofa, UniProt P00772); test: Surface plasmon resonance, ShSPI immobilized, PPE injected; conditions: SPR Biacore 3000, ShSPI on CM5 chip, PPE injected 180 s at 10 μL/min, HBS-P buffer, Langmuir binding fit; read-out: ka, PPE
T2 construct: purchased Sigma-Aldrich E0127
T2 sequence (P00772 27-266): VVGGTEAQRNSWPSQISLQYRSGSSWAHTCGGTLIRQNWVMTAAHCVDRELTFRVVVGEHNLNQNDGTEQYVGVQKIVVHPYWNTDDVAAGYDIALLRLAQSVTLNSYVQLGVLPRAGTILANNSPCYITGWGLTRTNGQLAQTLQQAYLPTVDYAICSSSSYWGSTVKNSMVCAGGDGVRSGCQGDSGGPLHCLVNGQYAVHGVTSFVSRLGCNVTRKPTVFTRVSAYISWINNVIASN
Description: (§3) Sensor chips CM5 (BR100012), 10 mM acetate buffer (BR100350, pH 4.0), amine coupling kit (BR100050), and HBS-P buffer (BR100826, used as running buffer) were all obtained from GE Healthcare Bio-sciences AB (Uppsala, Sweden). Data were collected and analyzed by BIAcore System (Version 3000, GE Healthcare Life Sciences, Pittsburgh, PA, USA) and BIA evaluation software (Version 3.0, GE Healthcare Life Sciences, Pittsburgh, PA, USA).
(§4) Before testing, ShSPI (100 μg/mL in acetate buffer, pH 4.0) was immobilized to the surface of CM5 chip. Following a standard amine coupling chemistry, running buffer was used to reach equilibration. HNE or PPE (doubling dilution) was injected over the immobilized ShSPI at a flow rate of 10 μL/min, and the association rate (ka, M^−1s^−1) was determined. After 3 min, running buffer was applied to the surface, and the dissociation rate (kd, s^−1) was determined over 15 min for PPE and 30 min for HNE, and another 500 μL of running buffer were injected at a flow rate of 20 μL/min to rebalance the chip. The equilibrium association constant (KA, M^−1) and the equilibrium dissociation constant (KD, M) were determined by ka/kd and kd/ka, respectively.

[4] = biological target: T2, porcine pancreatic elastase (PPE); test: Protease inhibition assay, porcine pancreatic elastase (chromogenic substrate, Dixon method); type: biochemical; conditions: 0.05 M Tris-HCl pH 7.8, 37 °C, 10 min pre-incubation, PPE 1 μg/mL, substrate MeOSuc-Ala-Ala-Pro-Val-pNA 30, 60, 90 μg/mL, absorbance 405 nm
From the text: as §1
Substrate for HNE and PPE (MeOSuc-Ala-Ala-Pro-Val-pNA, 324696) was purchased from Merck Millipore (USA). […]
as §2

[5] = biological target: T1, human neutrophil elastase (HNE); test: Surface plasmon resonance, ShSPI immobilized, HNE injected; conditions: SPR Biacore 3000, ShSPI on CM5 chip, HNE injected 180 s at 10 μL/min, HBS-P buffer, Langmuir binding fit; read-out: ka, HNE
Description: as §3, §4

[6] = biological target: T2, porcine pancreatic elastase (PPE); parameters: method as in PMID 2049103; conditions: reported; cited from earlier work

Compound | Ki [1] [nM] | Stability in human plasma [2] | kon [3] [M⁻¹ s⁻¹] | Ki [4] [nM] | kon [5] [M⁻¹ s⁻¹] | Inhibitory activity to PPE (literature) [6]
CC[C@H](C)[C@@H]1NC(=O)[C@H](C)NC(=O)[C@@H]2CCCN2C(=O)[C@@H]2CSSC[C@H](NC(=O)[C@H](CO)NC(=O)[C@H](CC(N)=O)NC(=O)[C@H](CO)NC(=O)[C@H](Cc3ccc(O)cc3)NC(=O)[C@H](CCSC)NC(=O)[C@H](CCCNC(=N)N)NC(=O)CNC(=O)[C@H](Cc3ccccc3)NC(=O)[C@H](CCC(=O)O)NC(=O)[C@H](CC(=O)O)NC(=O)[C@H](Cc3ccccc3)NC(=O)[C@H](C(C)C)NC(=O)[C@@H]3CCCN3C(=O)[C@H](CCC(N)=O)NC(=O)[C@H](Cc3ccc(O)cc3)NC1=O)C(=O)N[C@@H](CCC(=O)O)C(=O)N[C@@H](CCSC)C(=O)N[C@@H](CCC(N)=O)C(=O)N[C@@H](CCCNC(=N)N)C(=O)N[C@@H](C)C(=O)N[C@@H](CCCNC(=N)N)C(=O)N[C@H](C(=O)N[C@@H](CC(C)C)C(=O)N[C@@H](CCCNC(=N)N)C(=O)NCC(=O)O)CSSC[C@H](N)C(=O)N1CCC[C@H]1C(=O)N[C@@H](CCC(N)=O)C(=O)N[C@@H](C(C)C)C(=O)N2 [ShSPI] (H-CPQVCPAIYQPVFDEFGRMYSNSCEMQRARCLRG-OH; disulfide 1-31, 5-24) | 12.6 ± 2 | no significant degradation over 48 h | 45000 | 226 ± 20 | 4500 | 
CC(C)(C)C(=O)Oc1ccc(S(=O)(=O)Nc2ccccc2C(=O)NCC(=O)O)cc1 [sivelestat] |  |  |  |  |  | little inhibitory activity
